Laboratory results taken from patent US20110091473A1, “NOVEL ANTIBODY THERAPIES” (GENMAB A/S, priority 2007, published 2011).

What was measured:
Assay type in all cases: cell-based, human
Daudi cells [1] = test: CDC of Daudi cells, MTT analysis; settings: increased concentrations of MβCD
Method: CDC was induced by incubating B cells with anti-CD20 mAb (as described in Example 2). After 1-hour incubation (3-(4,5-dimethylthiazol-2-yl)-2,5-diphenyltetrazolium bromide (MTT) solution (5 mg/ml, Roche, Diagnostics, Almere, The Netherlands) was added to each well (flat-bottom microtiter plates; Nunc, Rochester, N.Y.). The reaction was stopped after 4 hours of incubation at 37° C. by the addition of 100 μl of 20% SDS (Roche Diagnostics, Almere, The Netherlands). After overnight incubation at 37° C. the absorbance of the samples was measured at 550-525 nm using an Elisa reader (EL808x, Biotek instruments, Highland park, Vt., USA). Cytotoxicity was expressed as a relative viability of the stimulated cells compared to cells incubated with medium only and was calculated as follows: relative viability=[(Ae−Ab)/(Ac−Ab)]*100, where Ab is the background absorbance, Ae is experimental absorbance of the lysed cells and Ac is the absorbance of untreated cells. The viability was expressed as percentage survival in comparison to non-cholesterol depleted cells (control).

[2] = system: B cell enriched cell population of a healthy volunteer; test: Anti-CD20-induced CDC of freshly isolated primary B cells; settings: for primary B cell population killed / cell lysis: MβCD-treated, saturating conditions (≧10 μg/ml); for cell lysis upon cholesterol depletion: primary B cells treated with MβCD
Method: Blood was obtained from a donor (either from a healthy volunteer or from patients included in clinical trials related to 2F2). Informed consent was provided according to the Declaration of Helsinki. The blood was used to isolate peripheral blood mononuclear cells (PMBC) via […] gradient separation. Briefly, 10 ml of whole blood was supplemented with 20-25 ml PBS (Braun, Oss, Netherlands). 13 ml of Lymphocyte Separation Medium (Lonza, Verviers, Belgium) was pipetted carefully underneath the diluted whole blood solution. The solution was centrifuged at 2000 rpm for 20 minutes whereupon the interphase containing the PBMC was collected. The cells were washed twice in PBS, counted with trypan blue and suspended in test medium (RMPI 1640/pen strep/0.1% BSA) at a concentration of 2-4×10^6 viable cells/ml. Cells were used to enrich B cells via negative depletion as described in Example 8.
PBMC (obtained as described under Example 17) were used to enrich for B cells using the Dynal B cell negative isolation kit (Dynal, Invitrogen, Carlsbad, Calif.) according to manufacturer's instruction. In brief, PBMC were washed and incubated for 20 minutes with mouse monoclonal antibodies directed against CD2, CD14, CD16, CD36, CD43 or CD235a at 4° C. Magnetic beads coated with human IgG4 against mouse monoclonal antibodies were added and the mixture was again incubated for 15 minutes at 4° C. After incubation mouse mAb-stained cells were separated from the mixture using a magnet. The remaining cells are considered as the B cell enriched population.
Human B cells were isolated from whole blood of a healthy volunteer (donor A) as described under Example 17 and Example 18.
The B cell enriched cell population of donor A and Daudi cells were incubated with MβCD as described under Example 2 and cell surface protein expression and sensitivity for CDC was measured.

WIL2-S cells = test: CD20 mAb-induced CDC of WIL2-S cells, PI/FACS analysis; settings: for CDC inducing capacity after cholesterol replenishment: WIL2-S cells, cholesterol replenished; for sensitivity for CDC induction: lovastatin-treated vs non-treated WIL2-S cells
Daudi cells [3] = test: CD20 mAb-induced CDC of Daudi cells, PI/FACS analysis; settings: for induction of CDC: non-treated Daudi cells, 15% normal human serum
Method: Cells were either non-treated or cholesterol-depleted as described in Example 2, Example 3 and Example 4, and resuspended in test medium to a concentration of 2×10^6 viable cells/ml. Daudi cells were used as target cells in a mAb-induced CDC assay. 50 μl of cell suspension was incubated with 50 μl anti-CD20 mAb in a serial dilution for 15 minutes at room temperature. After the incubation period, Normal Human Serum (M0008, Sanquin, Amsterdam, The Netherlands) was added as a source of complement (final concentration, 15%) to the cell suspension in round-bottomed microtiter plates (Nunc, Rochester, N.Y.). The mixture was incubated for 45 minutes at 37° C. after which the reaction was stopped by placing the samples on ice. Propidium iodide (PI, Sigma Aldrich, Zwijndrecht, The Netherlands) was added as a means to visualize the DNA content which becomes accessible upon permeabilisation of the cell membrane. The amount of PI-positive cells is directly correlated to the amount of dead cells, and measured using flow cytometry.

RAJI cells = test: Rituximab-induced ADCC of RAJI cells, 51Cr-release assay with PBMC; settings: for EC50 for rituximab-mediated ADCC: E:T 100:1
Method: In the antibody-dependent cellular cytotoxicity (ADCC) assay target B cells are labelled with radioactive chromium (^51Cr), and incubated with antibody and effector cells. Upon lysis the target cells release ^51Cr which can be measured by separation of the supernatant from the cells and quantification using a scintillation counter.
RAJI cells (obtained from ECACC, Porton Down, United Kingdom) served as target cells, and were cultured in RPMI 1640 supplemented with 10% heat-inactivated cosmic calf serum (CCS), 1 U/ml penicillin, 1 μg/ml streptomycin, and 4 mM L-glutamine (all from Invitrogen, Carlsbad, Calif.). RAJI cells were either non-treated or cholesterol-depleted using lovastatin (10 μM) as described in Example 3, and re-suspended in test medium to a concentration of 2×10^6 viable cells/ml.
RAJI cells were labeled with 20 μCi^51Cr (Amersham Biosciences, Uppsala, Sweden) for 2 hours. After extensive washing in medium, the cells were adjusted to 2×10^5 cells/ml. […] Assays were started by adding ^51Cr-labeled RAH cells (50 μl) giving a final volume of 200 >l. For isolated effector cells, containing 20% NK cells, an effector to target (E:T) ratio of 100:1 was used. After incubation (4 hours, 37° C.), assays were stopped by centrifugation, and ^51Cr release from triplicates was measured in counts per minute (cpm) in a scintillation counter. Percentage of cellular cytotoxicity was calculated using the following formula:
% specific lysis=(experimental cpm−basal cpm)/(maximal cpm−basal cpm)×100
with maximal ^51Cr release determined by adding TritonX-100 (5% final concentration) to target cells, and basal release measured in the absence of sensitizing antibodies and effector cells.

## 2F2: human anti-CD20 mAb, VH SEQ ID NO:1, VL SEQ ID NO:2, disclosed in WO 2004/035607
Daudi cells [1]
  mAb-induced CDC (cell survival): diminished
[2]
  primary B cell population killed / cell lysis: approximately 75%
  cell lysis upon cholesterol depletion: reduced
[2]; non-depleted primary B cells, donor A
  lysis of B cell enriched cell population: could be lysed
WIL2-S cells
  CDC inducing capacity after cholesterol replenishment: fully restored
  sensitivity for CDC induction: less sensitive
Daudi cells [3]; cholesterol-depleted Daudi cells
  cells lysed via CDC: 50%
Daudi cells [3]
  induction of CDC: induced CDC

## rituximab: anti-CD20 antibody Rituxan/MabThera, type I
[2]
  primary B cell population killed / cell lysis: 20-25%
  cell lysis upon cholesterol depletion: reduced
WIL2-S cells
  CDC inducing capacity after cholesterol replenishment: fully restored
  sensitivity for CDC induction: less sensitive
RAJI cells; control (non-treated) RAJI cells
  EC50 for rituximab-mediated ADCC: 0.024 µg/mL
RAJI cells; lovastatin-treated (10 μM) RAJI cells
  EC50 for rituximab-mediated ADCC: 0.082 µg/mL
RAJI cells; lovastatin-treated vs control cells
  increase of EC50 for rituximab-mediated ADCC: ~4 fold
Daudi cells [3]; cholesterol-depleted (lovastatin or MβCD) Daudi cells
  CDC-mediated lysis: abrogated
Daudi cells [3]
  induction of CDC: induced CDC
